Laboratory results published in article PMC5085131, “Cyclic AMP efflux inhibitors as potential therapeutic agents for leukemia” (Oncotarget, 2016).
Where two headings read alike, the source gives them in different places.

Tests used:
U937 cells = experiment: MultiCyt 4-Plex apoptosis assay; assay type: cell-based, human; details: for EC50: Homo sapiens, U-937, 24 h
Experimental: Apoptosis was determined using MultiCyt® 4-Plex Apoptosis Screening Kit (IntelliCyt, cat. 90053). The kit provides four different apoptosis endpoints that include effector caspases 3 and 7 activation, phosphatidylserine surface expression, mitochondrial membrane depolarization and cell membrane integrity. […] Cell membrane damage is detected by the uptake of a proprietary DNA intercalating agent analogous to 7-aminoactinomycin D.
384-well plates (Greiner 784201), pre-loaded with 5 μL cRPMI were stamped using a pintool with 100 nl of DMSO-solubilized compounds from the 100-fold concentrated stock solution. Next, 5 μL U937 cells (2 × 10^6/ml in cRPMI) were added to wells and mixed, and plates were foil-sealed. Compounds (Table 1) were tested in dose response at final concentrations ranging from 15.2 nM to 100 μM (1% DMSO final). Vehicle (DMSO) was used as a negative control. After 24 h incubation under culture conditions, the IntelliCyt MultiCyt 4-Plex Apoptosis Screening Kit was used according to manufacturer's protocol. The data were acquired using iQue Screener Platform (IntelliCyt). Singlet cell populations were analyzed for individual measures of apoptosis, and gates were set based on control histograms.

normal human PBMCs = experiment: CellTiter-Glo cell viability; assay type: cell-based; details: PBMC, overnight, n = 6, ± SEM, read-out: Compound EC50, PBMCs (cell viability)
Experimental: Healthy PBMCs were obtained from volunteers. Mononuclear cells were purified using Mono-Poly resolving medium (MP Biomedicals, cat. 091698049) according to manufacturer's instructions. PBMCs were resuspended in cRPMI and kept on ice prior to use.
Cell viability was determined with the CellTiter-Glo® Luminescent Cell Viability Assay (Promega). Greiner 655083 had 100 μL cRPMI +/− 4×10^4 cells/well, and dose response curves of compounds ranged from 100 μM to 1.53 nM (1% DMSO). Wells with DMSO-only served as negative controls. Samples were incubated overnight, and the assay was completed according to the manufacturer's protocol. Plates were analyzed using a Victor^3V™ 1420 Multilabel Counter (Perkin Elmer).

[1] = system: CREB (Ser133) / ATF-1 (Ser63) phosphorylation; experiment: Binding of anti-phospho-CREB/ATF-1 antibody in U937 cells (flow cytometry); assay type: cell-based, human; details: 1 hour, 20 μM
Experimental: Cells were suspended at 10^6 cells/ml in cRPMI and incubated for 1 hour at 37°C with 20 μM ICE compounds or forskolin (positive control). Negative control samples were treated with DMSO at equal volume. Cells were fixed with 20x volume of pre-warmed 1x solution BD Phosflow^TM Lyse/Fix Buffer (cat. 558049), incubated at 37°C for 10 minutes, permeabilized with BD Phosflow^TM Perm buffer II (cat. 558052), and incubated on ice for 30 minutes. Permeabilized cells were then washed and stained with BD Phosflow™ Alexa Fluor® 488 Mouse Anti-CREB (pS133) / ATF-1 (pS63) clone J151-21 (cat. 558435) according to the manufacturer's instructions.

VLA-4 = experiment: Kinetic analysis of VLA-4 deactivation (LDV-FITC dissociation) in U937 cells with non-desensitizing FPR1 mutant; assay type: cell-based, human; details: U937 cells pre-activated through FPR1 mutant, 40 μM, 37°C
Experimental: Kinetic analysis of the binding and dissociation of the LDV-FITC probe was described previously. Briefly, flow cytometric data were acquired at 37°C while the samples were stirred continuously with a stir bar (Bel-Art Products). First, U937 cells transfected with a non-desensitizing mutant of the Formyl Peptide Receptor FPR1 [43] were analyzed for 30-120 s to establish a baseline. The FPR1 mutant triggers VLA-4 activation, which persists for hundreds of seconds, allowing for integrin deactivation to be detected. Next, the LDV-FITC was added and acquisition was re-established. […] Finally, 40 μM of ICE, forskolin (positive control) or vehicle (negative control) were added. Acquisition was re-established, and data were acquired continuously for up to 1024 s.
Therefore, the transition from low to high affinity state led to increased binding of the probe. This was detected as an increase in the median fluorescence intensity (MFI). VLA-4 deactivation led to the dissociation of the probe and decreased MFI [21].

[2] = set-up: method as in PMID 19505822; details: cited from earlier work
[3] = set-up: method as in PMID 19505822; details: cited from earlier work; remark: listed apart in the source
[4] = mean of converged EC50s, read-out: Compound EC50, Means (of the apoptosis endpoints)
[5] = n = 4, ± SEM, read-out: Compound EC50, Annexin-V +
[6] = n = 4, ± SEM, read-out: Compound EC50, Cell membrane damage
[7] = n = 4, ± SEM, read-out: Compound EC50, Mitochondrial depolarization
[8] = even at the highest ICE concentrations
[9] = n = 4, ± SEM, read-out: Compound EC50, Active Caspase 3/7 +

EC50 (U937 cells; [5]) | SMILES | EC50 (U937 cells; [4]) | EC50 (U937 cells; [6]) | EC50 (U937 cells; [7]) | EC50 (normal human PBMCs) | Binding of anti-CREB (pS133) / ATF-1 (pS63) specific antibodies [1] | VLA-4 deactivation (dissociation of LDV-FITC) (VLA-4) | Effect on annexin-V binding (U937 cells; [8]) | Effect on caspase activation (U937 cells; [8]) | EC50 (U937 cells; [9]) | water-solubility [2] | bioavailability [3]
51.1 ± 26.2 µM | Oc1c(I)cc(Cl)c2cccnc12 [Clioquinol] | 26.7 µM | 11.1 ± 0.48 µM | 17.9 ± 2.3 µM | 87.8 ± 46.8 µM | comparable to the adenylate cyclase stimulator forskolin positive control |  |  |  |  |  | 
 | C[C@H]1COC2=C1C(=O)C(=O)c1c2ccc2c1CCCC2(C)C [Cryptotanshinone] | 25.8 µM | 30.7 ± 6.83 µM | 20.9 ± 6.96 µM | 11.8 ± 3.11 µM |  | rapid and reversible VLA-4 deactivation | very small effect | very small effect |  |  | 
7.55 ± 1.18 µM | C=C1C(=O)O[C@H]2[C@H]1CC/C(C)=C/CC[C@@]1(C)O[C@@H]21 [Parthenolide] | 7.44 µM | 4.34 ± 0.9 µM | 5.52 ± 1.02 µM | 56 ± 23.3 µM | comparable to the adenylate cyclase stimulator forskolin positive control | exceeded the effects of the positive control, forskolin |  |  | 12.4 ± 2.51 µM | Poor | Poor

SMILES | EC50 (U937 cells; [5]) | EC50 (U937 cells; [4]) | EC50 (U937 cells; [6]) | EC50 (U937 cells; [7]) | EC50 (normal human PBMCs) | Binding of anti-CREB (pS133) / ATF-1 (pS63) specific antibodies [1] | VLA-4 deactivation (dissociation of LDV-FITC) (VLA-4) | Effect on annexin-V binding (U937 cells; [8]) | Effect on caspase activation (U937 cells; [8]) | EC50 (U937 cells; [9]) | water-solubility [2] | bioavailability [3]
O=C1C=C2C(=CCOC2O)O1 (stereo not drawn) [Patulin] | 3.75 ± 0.63 µM | 4.95 µM | 1.54 ± 0.02 µM | 1.72 ± 0.94 µM | 246 ± 181 µM |  | exceeded the effects of the positive control, forskolin |  |  | 12.8 ± 0.09 µM |  | 
